Measurements: patent publication US9242937B2, “Pharmaceutically active disubstituted pyridine derivatives” (Bayer Intellectual Property GmbH, priority 2011, dated 2016)

Experiments:
CDK2/CyclinA = target: T1, CDK2/CyclinA (Homo sapiens, UniProt P24941); experiment: Lance Ultra KinaSelect Assay, CDK2; type: biochemical; conditions: ULight MBP substrate, ATP 3 μM; read-out: CDK2 LANCE assay (activity range), IC50
T1 construct: purchased Proqinase
Protocol: (§1) This protocol describes how the Lance Ultra KinaSelect Assay was performed to determine half maximal inhibitory concentration (IC50) of compounds of general formula (I) and CDK/Cyclin complexes. The principle behind this enzymatic assay is based upon the phosphorylation of the ULight-Peptide Substrat. It is detected by using a specific EU-labeled anti-phospho peptide antibody. The binding of the Eu-labeled anti-phospho peptide antibody to the phosphorylated ULight labeled peptide gives rise to a FRET-signal. Binding of an inhibitor to the kinase prevents phosphorylation of the ULight-MBP Substrat, resulting in a loss of FRET.
(§2) The compounds of general formula (I) summarized in Table 5 were diluted from a 10 mM DMSO stock solution 1:10 in a total volume of 15 μL DMSO. This compound predilution was then serial diluted 1:3 over 8 steps in DMSO and briefly spun down. Each compound solution was now diluted 1:20 in Enzymatic Buffer (HEPES: 50 mM, pH: 7.5; MgCl2: 10 mM; EGTA: 1 mM; DTT: 2 mM; Tween-20: 0.01%), mixed thoroughly and spun down. For every sample, 2 μL of the diluted compound were mixed with 6 μL CDK/Cyclin/Substrat solution and 2 μL ATP solution in a well of a small volume 384 well plate (Corning Incorporated, Corning, N.Y., USA; order no. 3673). The CDK/Cyclin was diluted to the appropriate concentration (see Table 3) and the ATP concentration was adjusted to its […] for the CDK/Cyclin, which was 3 μM for CDK2/Cyclin A, 20 μM for CDK1/Cyclin B1, 25 μM for CDK7/Cyclin H and CDK9/Cyclin T1, 55 μM for CDK6/Cyclin D3, 90 μM for CDK4/Cyclin D1 and 125 μM for CDK9/Cyclin K. For negative controls, in each well 2 μL of DMSO solution (1% final DMSO assay concentration) was mixed with 6 μL substrate solution (50 nM ULight MBP final assay concentration) and 2 μL ATP solution (appropriate final concentration see Table 3). For positive controls, in each well 2 μL of DMSO solution (1% final DMSO assay concentration) was mixed with 6 μL CDK/Cyclin/Substrat (appropriate final concentration see Table 3) and 2 μL Tracer ATP solution (appropriate final concentration see Table 3). Positive and negative controls were calculated from at least 8 different sample wells. The 384 well plates were mixed in a Teleshaker plate mixer (Beckman Coulter, Brea, Calif., USA) at 2000 rpm for 40 sec, and incubated for 1 h at room temperature. Before reading, 10 μL the detection buffer (Lance Detection Buffer 1×; EDTA: […]; Eu-Anti-P-MBP: see Table 3) was added. The FRET signal was measured at 340 nm excitation, 665 nm and 615 nm emission (for the kinase tracer and LanthaScreen Eu-AB, respectively) with an Envision spectrophotometer (Perkin Elmer, Waltham, Mass., USA) with 50 μs delay and 300 μs integration time. IC50 values were determined from the sigmoidal dose response curves with the software Quattro Workflow (Quattro GmbH, Munich, Germany).

MDAMB468 cells = experiment: Cell viability assay, MDAMB468 cells; type: cell-based; conditions: Homo sapiens, MDA-MB-468; 72 h, Cell Titer Glo; read-out: Cell Viability - MDAMB468 cells (activity range), IC50
Protocol: Hela- or MDAMB468-Cells were maintained in RPMI 1640 or McCoy's 5A cell culture medium+glutamine (PAN Biotech GmbH, Aidenbach, Germany; order no. P04-22100; P04-05500) supplemented with 10% fetal calf serum “Gold” (PAA Laboratories GmbH, Pasching, Austria; order no. A15-151) and grown at 37° C., 5% CO2. For the cell viability assay, cells were seeded with a density of 400 (Hela cells, DSMZ Braunschweig order no. ACC57) or 800 (MDAMB468 cells, ATCC order no. HTB-132) per well in 25 μL in 384-well plates (Greiner Bio-One, Frickenhausen, Germany; order no. 781080). After overnight incubation at 37° C./5% CO2, 25 nL or 75 nL compound were added to each sample well by using BIOMEK FXP Laboratory Automation Workstation (Beckman Coulter, USA). Wells with cells and 0.1% or 0.3% DMSO in culture medium were used as positive controls, wells with cells and 10 μM staurosporine in culture medium were used as negative controls. The cells were incubated with the compounds for 72 h at 37° C./5% CO2. For measurement of cell viability 25 μL Cell Titer Glo reagent (Promega, Madison, USA; order no. G7573), 1:2 diluted with cell culture medium, was added to each well. The 384 well-plates were placed for 2 min on a orbital microplate shaker and incubated for further 10 min at room temperature to stabilize the luminescence signal. Luminescence was measured by Envision Plate Reader (Perkin Elmer, USA). IC50 values were calculated with the software Excel Fit (IDBS, Guildford, UK) from 3-fold dilution series comprising at least 8 concentrations in duplicates.

CDK7/CyclinH/MAT1 = target: T2, CDK7/CyclinH/MAT1 (Homo sapiens, UniProt P50613); experiment: Lance Ultra KinaSelect Assay, CDK7; type: biochemical; conditions: ULight MBP substrate, ATP 25 μM; read-out: CDK7 LANCE assay (activity range), IC50
T2 construct: purchased Carna Biosciences
Protocol: as §1, §2

T2 sequence (P50613 whole entry): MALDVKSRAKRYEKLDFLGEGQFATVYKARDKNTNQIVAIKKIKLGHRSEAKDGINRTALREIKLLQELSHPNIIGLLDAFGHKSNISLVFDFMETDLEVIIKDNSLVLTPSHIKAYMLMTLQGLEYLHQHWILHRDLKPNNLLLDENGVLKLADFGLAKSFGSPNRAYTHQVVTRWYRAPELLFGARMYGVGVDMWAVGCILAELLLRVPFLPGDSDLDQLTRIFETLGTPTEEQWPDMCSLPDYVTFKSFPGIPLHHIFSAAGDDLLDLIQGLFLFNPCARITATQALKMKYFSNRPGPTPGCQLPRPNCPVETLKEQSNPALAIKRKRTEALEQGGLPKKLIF
T2 sequence (P51946 whole entry partner): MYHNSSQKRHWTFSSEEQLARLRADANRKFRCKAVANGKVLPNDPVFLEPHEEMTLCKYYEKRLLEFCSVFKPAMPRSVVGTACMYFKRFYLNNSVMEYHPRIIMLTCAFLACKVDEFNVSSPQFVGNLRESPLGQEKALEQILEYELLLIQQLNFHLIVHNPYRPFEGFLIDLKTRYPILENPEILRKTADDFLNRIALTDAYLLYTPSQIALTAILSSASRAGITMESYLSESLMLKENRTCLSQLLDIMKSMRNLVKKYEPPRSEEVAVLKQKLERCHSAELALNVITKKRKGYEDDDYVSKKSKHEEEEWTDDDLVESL
T2 sequence (P51948 whole entry partner): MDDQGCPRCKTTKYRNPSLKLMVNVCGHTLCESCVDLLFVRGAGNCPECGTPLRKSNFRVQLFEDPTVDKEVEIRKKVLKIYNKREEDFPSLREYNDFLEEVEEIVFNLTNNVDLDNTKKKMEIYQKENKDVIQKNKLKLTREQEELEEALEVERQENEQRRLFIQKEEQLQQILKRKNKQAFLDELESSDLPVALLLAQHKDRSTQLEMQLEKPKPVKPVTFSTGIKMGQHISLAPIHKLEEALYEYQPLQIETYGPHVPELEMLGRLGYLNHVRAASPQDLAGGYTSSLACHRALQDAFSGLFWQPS

IC50 (CDK2/CyclinA) [µM] | IC50 (MDAMB468 cells) [µM] | IC50 (CDK7/CyclinH/MAT1) [µM] | Compound
1 to 10 | 1 to 10 | > 10 | COc1cc(F)ccc1-c1ccnc(Nc2cccc(CS(N)(=O)=O)c2)c1 [Compound G1, [3-((4-(4-Fluoro-2-methoxyphenyl)pyridin-2-yl)amino)phenyl]-methanesulfonamide]
 | > 10 |  | COc1ccccc1-c1ccnc(Nc2cccc([N+](=O)[O-])c2)c1 [Compound C1, 4-(2-Methoxyphenyl)-N-(3-nitrophenyl)pyridin-2-amine]
0.1 to 1 | 1 to 10 | > 10 | COc1cc(F)ccc1-c1ccnc(Nc2cccc(NC(C)=O)c2)c1 [Compound J2, N-[3-((4-(4-Fluoro-2-methoxyphenyl)pyridin-2-yl)amino)phenyl]-acetamide]
0.1 to 1 | 1 to 10 | > 10 | COc1cc(F)ccc1-c1ccnc(Nc2cccc(NS(C)(=O)=O)c2)c1 [Compound J1, N-[3-((4-(4-Fluoro-2-methoxyphenyl)pyridin-2-yl)amino)phenyl]-methanesulfonamide]
0.1 to 1 | 0.1 to 1 | > 10 | COc1ccccc1-c1ccnc(Nc2cccc(S(N)(=O)=O)c2)c1 [Compound D1, 3-[(4-(2-Methoxyphenyl)pyridin-2-yl)amino]benzenesulfonamide]
 | > 10 |  | COc1ccccc1-c1ccnc(Nc2ccccc2)c1 [Compound B1, 4-(2-Methoxyphenyl)-N-phenylpyridin-2-amine]
1 to 10 | > 10 | > 10 | CCCNS(=O)(=O)Cc1cccc(Nc2cc(-c3ccc(F)cc3OC)ccn2)c1 [Compound K1, 1-[3-((4-(4-Fluoro-2-methoxyphenyl)pyridin-2-yl)amino)phenyl]-N-propylmethanesulfonamide]
< 0.1 | 1 to 10 | > 10 | COc1ccccc1-c1ccnc(Nc2ccc(S(N)(=O)=O)cc2)c1 [Compound E1, 4-[(4-(2-Methoxyphenyl)pyridin-2-yl)amino]benzenesulfonamide]
 | 1 to 10 |  | COc1ccccc1-c1ccnc(Nc2cccc(S(C)(=O)=O)c2)c1 [Compound F1, 4-(2-Methoxyphenyl)-N-(3-(methylsulfonyl)phenyl)pyridin-2-amine]
1 to 10 | 1 to 10 | > 10 | COc1cc(F)ccc1-c1ccnc(Nc2cccc(CS(=O)(=O)N(C)C)c2)c1 [Compound G3, 1-[3-((4-(4-Fluoro-2-methoxyphenyl)pyridin-2-yl)amino)phenyl]-N,N-dimethylmethanesulfonamide]
